Laboratory results: patent publication US20240343717A1, “MICROBIOCIDAL PYRAZOLE DERIVATIVES” (SYNGENTA CROP PROTECTION AG, priority 2021, published 2024)

Experiments:
Alternaria solani = Alternaria solani / tomato / leaf disc (early blight); type: in vivo; settings: foliar, tomato leaf disks, sprayed 2 days before inoculation, compared to untreated control
Description: Example B1: Alternaria solani/Tomato/Leaf Disc (Early Blight) Tomato leaf disks cv. Baby are placed on agar in multiwell plates (24-well format) and sprayed with the formulated test compound diluted in water. The leaf disks are inoculated with a spore suspension of the fungus 2 days after application. The inoculated leaf disks are incubated at 23° C./21° C.

Pyrenophora teres = Pyrenophora teres / barley / leaf disc preventative (net blotch); type: in vivo; settings: foliar, barley leaf segments, inoculated 2 days after application
Description: Example B14: Pyrenophora teres/Barley/Leaf Disc Preventative (Net Blotch) Barley leaf segments cv. Hasso are placed on agar in a multiwell plate (24-well format) and sprayed with the formulated test compound diluted in water. The leaf segments are inoculated with a spore suspension of the fungus 2 days after application. The inoculated leaf segments are incubated at 20° C. and 65% rh under a light regime of 12 h light/12 h darkness in a climate cabinet and the activity of a compound is assessed as disease control compared to untreated when an appropriate level of disease damage appears in untreated check leaf segments (5-7 days after application).

[1] = test system: Mycosphaerella arachidis (Cercospora arachidicola); experiment: Mycosphaerella arachidis (Cercospora arachidicola) / liquid culture (early leaf spot); type: cell-based; settings: growth inhibition photometrically 4-5 days after application, read-out: control of Mycosphaerella arachidis
Description: (§1) Example B10: Mycosphaerella arachidis (Cercospora arachidicola)/Liquid Culture (Early Leaf Spot) Conidia of the fungus from cryogenic storage are directly mixed into nutrient broth (PDB potato dextrose broth). After placing a (DMSO) solution of test compound into a microtiter plate (96-well format), the nutrient broth containing the fungal spores is added. The test plates are incubated at 24° C. and the inhibition of growth is determined photometrically 4-5 days after application.

[2] = test system: Monographella nivalis (Microdochium nivale); experiment: Monographella nivalis (Microdochium nivale) / liquid culture (foot rot cereals); type: cell-based; settings: growth inhibition photometrically 4-5 days after application, read-out: control of Monographella nivalis
Description: as §1, with “B9: Monographella nivalis (Microdochium nivale)/Liquid” for “B10: Mycosphaerella arachidis (Cercospora arachidicola)/Liquid”, “(Foot Rot Cereals)” for “(Early Leaf Spot)”

[3] = test system: Mycosphaerella graminicola (Septoria tritici); experiment: Mycosphaerella graminicola (Septoria tritici) / liquid culture (Septoria blotch); type: cell-based; settings: Zymoseptoria tritici, growth inhibition photometrically 4-5 days after application, read-out: control of Mycosphaerella graminicola
Description: as §1, with “B16:” for “B10:”, “graminicola (Septoria tritici)/Liquid” for “arachidis (Cercospora arachidicola)/Liquid”, “(Septoria Blotch)” for “(Early Leaf Spot)”

[4] = test system: Glomerella lagenarium (Colletotrichum lagenarium); experiment: Glomerella lagenarium (Colletotrichum lagenarium) / liquid culture (anthracnose); type: cell-based; settings: Colletotrichum orbiculare, growth inhibition photometrically 3-4 days after application, read-out: control of Glomerella lagenarium
Description: as §1, with “B3: Glomerella lagenarium (Colletotrichum lagenarium)/Liquid” for “B10: Mycosphaerella arachidis (Cercospora arachidicola)/Liquid”, “(Anthracnose)” for “(Early Leaf Spot)”, “measured” for “determined”, “3-4” for “4-5”

[5] = test system: Botryotinia fuckeliana (Botrytis cinerea); experiment: Botryotinia fuckeliana (Botrytis cinerea) / liquid culture (gray mould); type: cell-based; settings: growth inhibition photometrically 3-4 days after application, read-out: control of Botryotinia fuckeliana
Description: as §1, with “B2: Botryotinia fuckeliana (Botrytis cinerea)/Liquid” for “B10: Mycosphaerella arachidis (Cercospora arachidicola)/Liquid”, “(Gray Mould)” for “(Early Leaf Spot)”, “(Vogels” for “(PDB potato dextrose”, “3-4” for “4-5”

[6] = test system: Blumeria graminis f. sp. tritici (Erysiphe graminis f. sp. tritici); experiment: Blumeria graminis f. sp. tritici / wheat / leaf disc preventative (powdery mildew on wheat); type: in vivo; settings: foliar, wheat leaf segments, inoculated 1 day after application
Description: Example B4: Blumeria graminis f. Sp. Tritici (Erysiphe graminis f. Sp. Tritici)/Wheat/Leaf Disc Preventative (Powdery Mildew on Wheat) Wheat leaf segments cv. Kanzler are placed on agar in a multiwell plate (24-well format) and sprayed with the formulated test compound diluted in water. The leaf disks are inoculated by shaking powdery mildew infected plants above the test plates 1 day after application. The inoculated leaf disks are incubated at 20° C. and 60% rh under a light regime of 24 h darkness followed by 12 h light/12 h darkness in a climate chamber and the activity of a compound is assessed as percent disease control compared to untreated when an appropriate level of disease damage appears on untreated check leaf segments (6-8 days after application).

Cn1cc(C(C)(CNC(=O)c2cc(-c3ccc(F)cc3F)on2)c2ccncn2)cn1 (stereo not shown) [Compound P-23, 5-(2,4-difluorophenyl)-N-[2-(1-methylpyrazol-4-yl)-2-pyrimidin-4-yl-propyl]isoxazole-3-carboxamide]
≥ 80%: pest or weed control at 200 ppm (Alternaria solani) | pest or weed control at 200 ppm (Pyrenophora teres)

Cn1ncc(C(CNC(=O)c2cc(-c3ccc(F)cc3F)on2)c2cccc(C#N)n2)c1Cl (stereo not shown) [Compound P-117]
≥ 80%: inhibition of growth at 20 ppm [1] | inhibition of growth at 20 ppm [2] | inhibition of growth at 20 ppm [3] | inhibition of growth at 20 ppm [4] | inhibition of growth at 20 ppm [5]

COc1ccnc(C(C)(CNC(=O)c2cc(-c3ccc(F)cc3F)on2)c2cnn(C)c2)c1 (stereo not shown) [Compound P-7, 5-(2,4-difluorophenyl)-N-[2-(4-methoxy-2-pyridyl)-2-(1-methylpyrazol-4-yl)propyl]isoxazole-3-carboxamide]
≥ 80%: pest or weed control at 200 ppm (Alternaria solani) | inhibition of growth at 20 ppm [2] | inhibition of growth at 20 ppm [3] | inhibition of growth at 20 ppm [4]

CNC(=O)c1cccc(C(C)(CNC(=O)c2cc(-c3ccc(F)cc3F)on2)c2cnn(C)c2)n1 (stereo not shown) [Compound P-45, 5-(2,4-difluorophenyl)-N-[2-[6-(methylcarbamoyl)-2-pyridyl]-2-(1-methylpyrazol-4-lyl)propyl]isoxazole-3-carboxamide]
≥ 80%: pest or weed control at 200 ppm (Pyrenophora teres)

Cn1cc(C(C)(CNC(=O)c2cc(-c3ccc(F)cc3F)on2)c2ncccc2Br)cn1 (stereo not shown) [Compound P-53, N-[2-(3-bromo-2-pyridyl)-2-(1-methylpyrazol-4-yl)propyl]-5-(2,4-difluorophenyl) isoxazole-3-carboxamide]
≥ 80%: pest or weed control at 200 ppm (Pyrenophora teres) | inhibition of growth at 20 ppm [2]

Cn1cc(C(C)(CNC(=O)c2cc(-c3ccc(F)cc3F)on2)c2ncccc2Cl)cn1 (stereo not shown) [Compound P-2, N-[2-(3-chloro-2-pyridyl)-2-(1-methylpyrazol-4-yl)propyl]-5-(2,4-difluorophenyl) isoxazole-3-carboxamide]
≥ 80%: pest or weed control at 200 ppm (Pyrenophora teres) | inhibition of growth at 20 ppm [2] | inhibition of growth at 20 ppm [3] | inhibition of growth at 20 ppm [5]

CC(=O)Nc1cccc(C(C)(CNC(=O)c2cc(-c3ccc(F)cc3F)on2)c2cnn(C)c2)n1 (stereo not shown) [Compound P-52, N-[2-(6-acetamido-2-pyridyl)-2-(1-methylpyrazol-4-yl)propyl]-5-(2,4-difluorophenyl) isoxazole-3-carboxamide]
≥ 80%: pest or weed control at 200 ppm (Pyrenophora teres)

COc1ccc(C(C)(CNC(=O)c2cc(-c3ccc(F)cc3F)on2)c2cnn(C)c2)nn1 (stereo not shown) [Compound P-105, 5-(2,4-difluorophenyl)-N-[2-(6-methoxypyridazin-3-yl)-2-(1-methylpyrazol-4-yl)propyl] isoxazole-3-carboxamide]
≥ 80%: pest or weed control at 200 ppm (Alternaria solani) | pest or weed control at 200 ppm (Pyrenophora teres)

CNC(=O)c1ccc(C(C)(CNC(=O)c2cc(-c3ccc(F)cc3F)on2)c2cnn(C)c2)nc1 (stereo not shown) [Compound P-56, 5-(2,4-difluorophenyl)-N-[2-[5-(methylcarbamoyl)-2-pyridyl]-2-(1-methylpyrazol-4-yl)propyl]isoxazole-3-carboxamide]
≥ 80%: pest or weed control at 200 ppm (Pyrenophora teres)

Cn1cc(C(C)(CNC(=O)c2cc(C3CC3)on2)c2cccc(Cl)n2)cn1 (stereo not shown) [Compound P-78, N-[2-(6-chloro-2-pyridyl)-2-(1-methylpyrazol-4-yl)propyl]-5-cyclopropyl-isoxazole-3-carboxamide]
≥ 80%: inhibition of growth at 20 ppm [1] | inhibition of growth at 20 ppm [2] | inhibition of growth at 20 ppm [3]

Cn1cc(C(C)(CNC(=O)c2cc(-c3ccc(F)cc3F)on2)c2cccc(N)n2)cn1 (stereo not shown) [Compound P-50, N-[2-(6-amino-2-pyridyl)-2-(1-methylpyrazol-4-yl)propyl]-5-(2,4-difluorophenyl) isoxazole-3-carboxamide]
≥ 80%: inhibition of growth at 20 ppm [1] | pest or weed control at 200 ppm (Pyrenophora teres) | inhibition of growth at 20 ppm [2] | inhibition of growth at 20 ppm [3] | inhibition of growth at 20 ppm [4] | inhibition of growth at 20 ppm [5]

Cn1cc(C(C)(CNC(=O)c2cc(C3CCCCC3)on2)c2cccc(Cl)n2)cn1 (stereo not shown) [Compound P-79, N-[2-(6-chloro-2-pyridyl)-2-(1-methylpyrazol-4-yl)propyl]-5-cyclohexyl-isoxazole-3-carboxamide]
≥ 80%: inhibition of growth at 20 ppm [1] | pest or weed control at 200 ppm (Pyrenophora teres) | inhibition of growth at 20 ppm [2] | inhibition of growth at 20 ppm [3] | inhibition of growth at 20 ppm [4]

CCS(=O)(=O)c1cccc(C(C)(CNC(=O)c2nnc(-c3ccc(F)cc3F)s2)c2cnn(C)c2)n1 (stereo not shown) [Compound P-3, 5-(2,4-difluorophenyl)-N-[2-(6-ethylsulfonyl-2-pyridyl)-2-(1-methylpyrazol-4-yl)propyl]-1,3,4-thiadiazole-2-carboxamide]
≥ 80%: pest or weed control at 200 ppm (Pyrenophora teres)

CC(=O)Nc1ccc(C(C)(CNC(=O)c2cc(-c3ccc(F)cc3F)on2)c2cnn(C)c2)nc1 (stereo not shown) [Compound P-59, N-[2-(5-acetamido-2-pyridyl)-2-(1-methylpyrazol-4-yl)propyl]-5-(2,4-difluorophenyl) isoxazole-3-carboxamide]
≥ 80%: pest or weed control at 200 ppm [6]

C=C(C)COc1cc(Cl)nc(C(C)(CNC(=O)c2cc(-c3ccc(F)cc3F)on2)c2cnn(C)c2)c1 (stereo not shown) [Compound P-68, N-[2-[6-chloro-4-(2-methylallyloxy)-2-pyridyl]-2-(1-methylpyrazol-4-yl)propyl]-5-(2,4-difluorophenyl) isoxazole-3-carboxamide]
≥ 80%: inhibition of growth at 20 ppm [1] | inhibition of growth at 20 ppm [2] | inhibition of growth at 20 ppm [3] | inhibition of growth at 20 ppm [4] | inhibition of growth at 20 ppm [5]

Cn1cc(C(C)(CNC(=O)c2nnc(-c3ccc(F)cc3F)s2)c2ccc(Cl)cn2)cn1 (stereo not shown) [Compound P-17, N-[2-(5-chloro-2-pyridyl)-2-(1-methylpyrazol-4-yl)propyl]-5-(2,4-difluorophenyl)-1,3,4-thiadiazole-2-carboxamide]
≥ 80%: inhibition of growth at 20 ppm [1] | inhibition of growth at 20 ppm [2] | inhibition of growth at 20 ppm [3] | inhibition of growth at 20 ppm [4]

Cn1cc(C(C)(CNC(=O)c2cc(-c3ccc(F)cc3F)on2)c2ccc(C#N)cn2)cn1 (stereo not shown) [Compound P-75, N-[2-(5-cyano-2-pyridyl)-2-(1-methylpyrazol-4-yl)propyl]-5-(2,4-difluorophenyl) isoxazole-3-carboxamide]
≥ 80%: pest or weed control at 200 ppm (Alternaria solani) | pest or weed control at 200 ppm (Pyrenophora teres) | inhibition of growth at 20 ppm [2] | inhibition of growth at 20 ppm [3]

Cn1cc(C(C)(CNC(=O)c2cc(-c3ccc(F)cc3F)on2)c2ccc(Cl)cn2)cn1 (stereo not shown) [Compound P-20, N-[2-(5-chloro-2-pyridyl)-2-(1-methylpyrazol-4-yl)propyl]-5-(2,4-difluorophenyl) isoxazole-3-carboxamide]
≥ 80%: pest or weed control at 200 ppm (Pyrenophora teres) | inhibition of growth at 20 ppm [2] | inhibition of growth at 20 ppm [3] | inhibition of growth at 20 ppm [4]
